# Experimental data: patent publication US20260184691A1, “INHIBITORS AND DEGRADERS OF PIP4K PROTEIN” (Larkspur Biosciences, Inc., priority 2022, published 2026)
# Target: T1, endogenous PIP4K2C C-terminally tagged with HiBiT peptide in MOLT-4 cells (Homo sapiens, UniProt Q8TBX8)
# T1 construct: to C-terminally tag endogenous PIP4K2C with HiBiT peptide; host or cells: MOLT-4 (CRISPR-Cas9 knock-in clone)
# T1 sequence (Q8TBX8 1-421): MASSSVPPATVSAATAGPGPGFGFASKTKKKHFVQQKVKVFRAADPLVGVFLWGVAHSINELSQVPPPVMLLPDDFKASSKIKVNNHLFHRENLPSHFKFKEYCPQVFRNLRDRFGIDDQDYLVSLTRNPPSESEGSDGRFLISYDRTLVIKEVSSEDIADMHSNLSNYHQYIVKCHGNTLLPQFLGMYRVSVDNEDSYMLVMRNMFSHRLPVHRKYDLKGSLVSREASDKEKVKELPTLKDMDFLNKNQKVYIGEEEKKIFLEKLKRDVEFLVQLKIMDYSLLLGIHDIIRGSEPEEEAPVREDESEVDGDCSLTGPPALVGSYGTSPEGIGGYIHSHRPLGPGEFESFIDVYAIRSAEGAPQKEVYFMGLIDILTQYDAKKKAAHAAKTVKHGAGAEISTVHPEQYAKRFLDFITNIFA
# Test: HiBiT PIP4K2C degradation assay in MOLT-4 cells
# Assay type: cell-based
# Conditions: 24 hours, 10-point dose response, top concentration 10 micromolar, read-out: HiBIT-degradation MOLT4 PIP4k2C 24 hours DC50
# Method: Following clonal selection, genotype was confirmed by Sanger sequencing. […] Nano-Glo® HiBiT Lytic Assay System was purchased from Promega (Madison, WI, Catalog number N3030). Cell culture flasks and 384-well microplates were purchased from Corning (Glendale, AZ).
# To study PIP4K2C degradation, 384-well plates were plated with a 10-point dose response curve, 3-fold dilution, in duplicate with a top starting concentration of 10 micromolar. Subsequently 22,500 cells were added to each well and incubated at 37C in 5% CO2 for 24 hours. At the end of the incubation time, cells were treated with the Nano-Glo® HiBiT Lytic Detection System following the manufacturer's instructions. Luminescence was measured with a PHERAstar FSX plate reader (BMG Labtech, Cary, NC). The Levenberg-Marquardt algorithm was used to fit a Hill equation to dose-response data to calculate DC50 values (see Table 6).
row,SMILES,DC50
1,"O=C(COc1ccc2c(c1)C(=O)N(C1CCC(=O)NC1=O)C2=O)NCCCCCCCCCC(=O)Nc1cncc(Nc2ncc(Cl)c(-c3cccc(-c4ccccc4)c3)n2)c1 (centres unmarked) [Compound 59, N-(5-((4-([1,1′-biphenyl]-3-yl)-5-chloropyrimidin-2-yl)amino)pyridin-3-yl)-10-(2-((2-(2,6-dioxopiperidin-3-yl)-1,3-dioxoisoindolin-5-yl)oxy)acetamido)decanamide]",0.5 to 1 µM
2,"O=C1CCC(N2Cc3cc(OCCCCCCCCN4CCC5(CC4)CCN(c4cncc(Nc6ncc(Cl)c(-c7cccc(-c8ccccc8)c7)n6)c4)C5=O)ccc3C2=O)C(=O)N1 (centres unmarked) [Compound 56, 3-(5-((8-(2-(5-((4-([1,1′-biphenyl]-3-yl)-5-chloropyrimidin-2-yl)amino)pyridin-3-yl)-1-oxo-2,8-diazaspiro[4.5]decan-8-yl)octyl)oxy)-1-oxoisoindolin-2-yl)piperidine-2,6-dione]",< 0.5 µM
3,"Cn1c(=O)n(C2CCC(=O)NC2=O)c2ccc(C3CCN(CC(=O)N4CCC(C(=O)Nc5cncc(Nc6ncc(Cl)c(-c7cccc(C8CC8)c7)n6)c5)CC4)CC3)cc21 (centres unmarked) [Compound 210, N-(5-((5-chloro-4-(3-cyclopropylphenyl)pyrimidin-2-yl)amino)pyridin-3-yl)-1-(2-(4-(1-(2,6-dioxopiperidin-3-yl)-3-methyl-2-oxo-2,3-dihydro-1H-benzo[d]imidazol-5-yl)piperidin-1-yl)acetyl)piperidine-4-carboxamide]",< 0.5 µM
4,"O=C1CCC(Nc2ccc(C3CCN(CC(=O)N4CCC5(CC4)CCN(c4cncc(Nc6ncc(Cl)c(-c7cccc(N8CCCC8)c7)n6)c4)C5=O)CC3)cc2)C(=O)N1 (centres unmarked) [Compound 179, 3-((4-(1-(2-(2-(5-((5-chloro-4-(3-(pyrrolidin-1-yl)phenyl)pyrimidin-2-yl)amino)pyridin-3-yl)-1-oxo-2,8-diazaspiro[4.5]decan-8-yl)-2-oxoethyl)piperidin-4-yl)phenyl)amino)piperidine-2,6-dione]",< 0.5 µM
5,"O=C(COc1cccc2c1C(=O)N(C1CCC(=O)NC1=O)C2=O)NCCCCCCCC(=O)N1CCC2(CC1)CCN(c1cncc(Nc3ncc(Cl)c(-c4cccc(-c5ccccc5)c4)n3)c1)C2=O (centres unmarked) [Compound 77, N-(8-(2-(5-((4-([1,1′-biphenyl]-3-yl)-5-chloropyrimidin-2-yl)amino)pyridin-3-yl)-1-oxo-2,8-diazaspiro[4.5]decan-8-yl)-8-oxooctyl)-2-((2-(2,6-dioxopiperidin-3-yl)-1,3-dioxoisoindolin-4-yl)oxy)acetamide]",< 0.5 µM
6,"Cn1c(=O)n(C2CCC(=O)NC2=O)c2ccc(C3CCN(C(=O)CN4CCC(C(=O)Nc5cncc(Nc6ncc(Cl)c(-c7cccc(C8CC8)c7)n6)c5)CC4)CC3)cc21 (centres unmarked) [Compound 204, N-(5-((5-chloro-4-(3-cyclopropylphenyl)pyrimidin-2-yl)amino)pyridin-3-yl)-1-(2-(4-(1-(2,6-dioxopiperidin-3-yl)-3-methyl-2-oxo-2,3-dihydro-1H-benzo[d]imidazol-5-yl)piperidin-1-yl)-2-oxoethyl)piperidine-4-carboxamide]",< 0.5 µM
7,"O=C1CCC(N2C(=O)c3cccc(OCCCN4CCN(CCCCC(=O)Nc5cncc(Nc6ncc(Cl)c(-c7cccc(-c8ccccc8)c7)n6)c5)CC4)c3C2=O)C(=O)N1 (centres unmarked) [Compound 65, N-(5-((4-([1,1′-biphenyl]-3-yl)-5-chloropyrimidin-2-yl)amino)pyridin-3-yl)-5-(4-(3-((2-(2,6-dioxopiperidin-3-yl)-1,3-dioxoisoindolin-4-yl)oxy)propyl)piperazin-1-yl)pentanamide]",< 0.5 µM
8,"O=C1CCC(Nc2ccc(C3CCN(CC(=O)N4CCC5(CC4)CCN(c4cncc(Nc6ncc(Cl)c(N7CCC[C@H](C(F)(F)F)C7)n6)c4)C5=O)CC3)cc2)C(=O)N1 (stereo partly drawn) [Compound 172, 3-((4-(1-(2-(2-(5-((5-chloro-4-((S)-3-(trifluoromethyl)piperidin-1-yl)pyrimidin-2-yl)amino)pyridin-3-yl)-1-oxo-2,8-diazaspiro[4.5]decan-8-yl)-2-oxoethyl)piperidin-4-yl)phenyl)amino)piperidine-2,6-dione]",< 0.5 µM

# Continued, values first:
row,DC50,SMILES
1,< 0.5 µM,"O=C1CCC(N2Cc3cc(OCCCCCCCN4CCC5(CC4)CCN(c4cncc(Nc6ncc(Cl)c(-c7cccc(-c8ccccc8)c7)n6)c4)C5=O)ccc3C2=O)C(=O)N1 (centres unmarked) [Compound 54, 3-(5-((7-(2-(5-((4-([1,1′-biphenyl]-3-yl)-5-chloropyrimidin-2-yl)amino)pyridin-3-yl)-1-oxo-2,8-diazaspiro[4.5]decan-8-yl)heptyl)oxy)-1-oxoisoindolin-2-yl)piperidine-2,6-dione]"
2,0.5 to 1 µM,"O=C1CCC(N2C(=O)c3cccc(OCCCCCCCCC(=O)N4CCC5(CC4)CCN(c4cncc(Nc6ncc(Cl)c(-c7cccc(-c8ccccc8)c7)n6)c4)C5=O)c3C2=O)C(=O)N1 (centres unmarked) [Compound 78, 4-((9-(2-(5-((4-([1,1′-biphenyl]-3-yl)-5-chloropyrimidin-2-yl)amino)pyridin-3-yl)-1-oxo-2,8-diazaspiro[4.5]decan-8-yl)-9-oxononyl)oxy)-2-(2,6-dioxopiperidin-3-yl)isoindoline-1,3-dione]"
3,< 0.5 µM,"O=C1CCC(N2Cc3cc(OCCCCCCC(=O)N4CCC5(CC4)CCN(c4cncc(Nc6ncc(Cl)c(-c7cccc(-c8ccccc8)c7)n6)c4)C5=O)ccc3C2=O)C(=O)N1 (centres unmarked) [Compound 64, 3-(5-((7-(2-(5-((4-([1,1′-biphenyl]-3-yl)-5-chloropyrimidin-2-yl)amino)pyridin-3-yl)-1-oxo-2,8-diazaspiro[4.5]decan-8-yl)-7-oxoheptyl)oxy)-1-oxoisoindolin-2-yl)piperidine-2,6-dione]"
4,< 0.5 µM,"O=C1CCC(N2Cc3cc(OC4CCN(C(=O)CN5CCC6(CC5)CCN(c5cncc(Nc7ncc(Cl)c(-c8cccc(C9CC9)c8)n7)c5)C6=O)CC4)ccc3C2=O)C(=O)N1 (centres unmarked) [Compound 199, 3-(5-((1-(2-(2-(5-((5-chloro-4-(3-cyclopropylphenyl)pyrimidin-2-yl)amino)pyridin-3-yl)-1-oxo-2,8-diazaspiro[4.5]decan-8-yl)acetyl)piperidin-4-yl)oxy)-1-oxoisoindolin-2-yl)piperidine-2,6-dione]"
5,< 0.5 µM,"O=C1CCC(Nc2ccc(C3CCN(CC(=O)N4CCC5(CC4)CCN(c4cncc(Nc6ncc(Cl)c(N7CCC[C@@H](O)C7)n6)c4)C5=O)CC3)cc2)C(=O)N1 (stereo partly drawn) [Compound 170, 3-((4-(1-(2-(2-(5-((5-chloro-4-((R)-3-hydroxypiperidin-1-yl)pyrimidin-2-yl)amino)pyridin-3-yl)-1-oxo-2,8-diazaspiro[4.5]decan-8-yl)-2-oxoethyl)piperidin-4-yl)phenyl)amino)piperidine-2,6-dione]"
6,< 0.5 µM,"O=C1CCC(Nc2ccc(N3CCC(CC(=O)N4CCC5(CC4)CCN(c4cncc(Nc6ncc(Cl)c(N7CCCCC7)n6)c4)C5=O)CC3)cc2)C(=O)N1 (centres unmarked) [Compound 168, 3-((4-(4-(2-(2-(5-((5-chloro-4-(piperidin-1-yl)pyrimidin-2-yl)amino)pyridin-3-yl)-1-oxo-2,8-diazaspiro[4.5]decan-8-yl)-2-oxoethyl)piperidin-1-yl)phenyl)amino)piperidine-2,6-dione]"
7,< 0.5 µM,"O=C1CCC(Nc2ccc(N3CCC(CC(=O)N4CCC5(CC4)CCN(c4cncc(Nc6ncc(Cl)c(-c7cccc(N8CCCCC8)c7)n6)c4)C5=O)CC3)cc2)C(=O)N1 (centres unmarked) [Compound 182, 3-((4-(4-(2-(2-(5-((5-chloro-4-(3-(piperidin-1-yl)phenyl)pyrimidin-2-yl)amino)pyridin-3-yl)-1-oxo-2,8-diazaspiro[4.5]decan-8-yl)-2-oxoethyl)piperidin-1-yl)phenyl)amino)piperidine-2,6-dione]"
8,< 0.5 µM,"O=C1CCC(N2Cc3c(OCCCCCCCCC(=O)N4CCC5(CC4)CCN(c4cncc(Nc6ncc(Cl)c(-c7cccc(-c8ccccc8)c7)n6)c4)C5=O)cccc3C2=O)C(=O)N1 (centres unmarked) [Compound 71, 3-(4-((9-(2-(5-((4-([1,1′-biphenyl]-3-yl)-5-chloropyrimidin-2-yl)amino)pyridin-3-yl)-1-oxo-2,8-diazaspiro[4.5]decan-8-yl)-9oxononyl)oxy)-1-oxoisoindolin-2-yl)piperidine-2,6-dione]"
9,< 0.5 µM,"O=C1CCC(N2Cc3c(OCCCCCCCC(=O)N4CCC5(CC4)CCN(c4cncc(Nc6ncc(Cl)c(-c7cccc(-c8ccccc8)c7)n6)c4)C5=O)cccc3C2=O)C(=O)N1 (centres unmarked) [Compound 70, 3-(4-((8-(2-(5-((4-([1,1′-biphenyl]-3-yl)-5-chloropyrimidin-2-yl)amino)pyridin-3-yl)-1-oxo-2,8-diazaspiro[4.5]decan-8-yl)-8-oxooctyl)oxy)-1-oxoisoindolin-2-yl)piperidine-2,6-dione]"
